Results from the supplement of paper PMC10307832.

Columns and labels:
Test in all cases: relative viability (nuclei count vs DMSO), 5 days (fraction); higher = more cells survive
XMD14-99 + Tozasertib = compound: CN1CCN(CC1)C2=CC(=C(C=C2)NC3=NC(=C(S3)C(=O)C4=C(C=CC=C4Cl)Cl)N)OC [XMD14-99] + Cc1cc(Nc2cc(N3CCN(C)CC3)nc(Sc3ccc(NC(=O)C4CC4)cc3)n2)n[nH]1 [Tozasertib] (partner 0.1 µM)
How it was run: (§1)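 Nuclei were stained with Hoechst during a one-step fixation (final 0.05% Triton X-100, 1% formaldehyde, 1 ug/ml Hoechst) carried out 5 days after dosing, then counted on 4× images. The cells, lung cancer lines in 1536-well plates, had been dosed by pin tool the day after seeding with one drug alone or a fixed anchor-drug dose plus five library-drug doses (not always all listed) in √10 steps. Relative viability is the nuclei count in treated wells divided by that in vehicle wells, and each value is the median of duplicate plates.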

XMD14-99 + AZD7762 = compound: CN1CCN(CC1)C2=CC(=C(C=C2)NC3=NC(=C(S3)C(=O)C4=C(C=CC=C4Cl)Cl)N)OC [XMD14-99] + NC(=O)Nc1cc(-c2cccc(F)c2)sc1C(=O)N[C@H]1CCCNC1 [AZD7762] (partner 0.2 µM)
How it was run: as §1

XMD14-99 + Pemetrexed = compound: CN1CCN(CC1)C2=CC(=C(C=C2)NC3=NC(=C(S3)C(=O)C4=C(C=CC=C4Cl)Cl)N)OC [XMD14-99] + Nc1nc2[nH]cc(CCc3ccc(C(=O)N[C@@H](CCC(=O)O)C(=O)O)cc3)c2c(=O)[nH]1 [Pemetrexed] (partner 0.2 µM)
How it was run: as §1

AZD1208 + Phenformin = compound: N[C@@H]1CCCN(c2c(/C=C3\SC(=O)NC3=O)cccc2-c2ccccc2)C1 [AZD1208] + N=C(N)NC(=N)NCCc1ccccc1 [Phenformin] (partner 250 µM)
How it was run: as §1

Cell Line: NCI-H838
- relative viability (XMD14-99 + Tozasertib; first compound 0.08 µM): 0.265
- relative viability (XMD14-99 + Tozasertib; first compound 0.8 µM): 0.24
- relative viability (XMD14-99 + Tozasertib; first compound 2.53 µM): 0.269
- relative viability (XMD14-99 + Tozasertib; first compound 8 µM): 0.194
- relative viability (XMD14-99 + AZD7762; first compound 0.08 µM): 0.91
- relative viability (XMD14-99 + AZD7762; first compound 0.8 µM): 0.952
- relative viability (XMD14-99 + AZD7762; first compound 2.53 µM): 0.975
- relative viability (XMD14-99 + AZD7762; first compound 8 µM): 0.897
- relative viability (XMD14-99 + Pemetrexed; first compound 0.08 µM): 0.253
- relative viability (XMD14-99 + Pemetrexed; first compound 0.8 µM): 0.226
- relative viability (XMD14-99 + Pemetrexed; first compound 2.53 µM): 0.255
- relative viability (XMD14-99 + Pemetrexed; first compound 8 µM): 0.198
- relative viability (AZD1208 + Phenformin; first compound 0.08 µM): 0.524
- relative viability (AZD1208 + Phenformin; first compound 0.253 µM): 0.704
- relative viability (AZD1208 + Phenformin; first compound 0.8 µM): 0.425
- relative viability (AZD1208 + Phenformin; first compound 2.53 µM): 0.583
- relative viability (AZD1208 + Phenformin; first compound 8 µM): 0.485

Cell Line: NCI-H1355
- relative viability (XMD14-99 + Tozasertib; first compound 0.08 µM): 0.54
- relative viability (XMD14-99 + Tozasertib; first compound 0.8 µM): 0.519
- relative viability (XMD14-99 + Tozasertib; first compound 2.53 µM): 0.408
- relative viability (XMD14-99 + Tozasertib; first compound 8 µM): 0.324
- relative viability (XMD14-99 + AZD7762; first compound 0.08 µM): 0.85
- relative viability (XMD14-99 + AZD7762; first compound 0.8 µM): 0.625
- relative viability (XMD14-99 + AZD7762; first compound 2.53 µM): 0.652
- relative viability (XMD14-99 + AZD7762; first compound 8 µM): 0.572
- relative viability (XMD14-99 + Pemetrexed; first compound 0.08 µM): 1.09
- relative viability (XMD14-99 + Pemetrexed; first compound 0.8 µM): 1.06
- relative viability (XMD14-99 + Pemetrexed; first compound 2.53 µM): 0.945
- relative viability (XMD14-99 + Pemetrexed; first compound 8 µM): 0.896
- relative viability (AZD1208 + Phenformin; first compound 0.08 µM): 0.479
- relative viability (AZD1208 + Phenformin; first compound 0.253 µM): 0.469
- relative viability (AZD1208 + Phenformin; first compound 0.8 µM): 0.416
- relative viability (AZD1208 + Phenformin; first compound 2.53 µM): 0.447
- relative viability (AZD1208 + Phenformin; first compound 8 µM): 0.392

Cell Line: NCI-H1395
- relative viability (XMD14-99 + Tozasertib; first compound 0.08 µM): 0.689
- relative viability (XMD14-99 + Tozasertib; first compound 0.8 µM): 0.79
- relative viability (XMD14-99 + Tozasertib; first compound 2.53 µM): 0.537
- relative viability (XMD14-99 + Tozasertib; first compound 8 µM): 0.651
- relative viability (XMD14-99 + AZD7762; first compound 0.08 µM): 0.387
- relative viability (XMD14-99 + AZD7762; first compound 0.8 µM): 0.462
- relative viability (XMD14-99 + AZD7762; first compound 2.53 µM): 0.363
- relative viability (XMD14-99 + AZD7762; first compound 8 µM): 0.38
- relative viability (XMD14-99 + Pemetrexed; first compound 0.08 µM): 0.838
- relative viability (XMD14-99 + Pemetrexed; first compound 0.8 µM): 0.953
- relative viability (XMD14-99 + Pemetrexed; first compound 2.53 µM): 0.904
- relative viability (XMD14-99 + Pemetrexed; first compound 8 µM): 0.729
- relative viability (AZD1208 + Phenformin; first compound 0.08 µM): 0.442
- relative viability (AZD1208 + Phenformin; first compound 0.253 µM): 0.438
- relative viability (AZD1208 + Phenformin; first compound 0.8 µM): 0.46
- relative viability (AZD1208 + Phenformin; first compound 2.53 µM): 0.506
- relative viability (AZD1208 + Phenformin; first compound 8 µM): 0.417

Cell Line: NCI-H1437
- relative viability (XMD14-99 + Tozasertib; first compound 0.08 µM): 0.426
- relative viability (XMD14-99 + Tozasertib; first compound 0.8 µM): 0.336
- relative viability (XMD14-99 + Tozasertib; first compound 2.53 µM): 0.321
- relative viability (XMD14-99 + Tozasertib; first compound 8 µM): 0.219
- relative viability (XMD14-99 + AZD7762; first compound 0.08 µM): 1.18
- relative viability (XMD14-99 + AZD7762; first compound 0.8 µM): 1.05
- relative viability (XMD14-99 + AZD7762; first compound 2.53 µM): 0.991
- relative viability (XMD14-99 + AZD7762; first compound 8 µM): 0.719
- relative viability (XMD14-99 + Pemetrexed; first compound 0.08 µM): 0.303
- relative viability (XMD14-99 + Pemetrexed; first compound 0.8 µM): 0.313
- relative viability (XMD14-99 + Pemetrexed; first compound 2.53 µM): 0.307
- relative viability (XMD14-99 + Pemetrexed; first compound 8 µM): 0.27
- relative viability (AZD1208 + Phenformin; first compound 0.08 µM): 0.324
- relative viability (AZD1208 + Phenformin; first compound 0.253 µM): 0.258
- relative viability (AZD1208 + Phenformin; first compound 0.8 µM): 0.267
- relative viability (AZD1208 + Phenformin; first compound 2.53 µM): 0.277
- relative viability (AZD1208 + Phenformin; first compound 8 µM): 0.314

Cell Line: NCI-H1651
- relative viability (XMD14-99 + Tozasertib; first compound 0.08 µM): 0.767
- relative viability (XMD14-99 + Tozasertib; first compound 0.8 µM): 0.645
- relative viability (XMD14-99 + Tozasertib; first compound 2.53 µM): 0.657
- relative viability (XMD14-99 + Tozasertib; first compound 8 µM): 0.556
- relative viability (XMD14-99 + AZD7762; first compound 0.08 µM): 0.429
- relative viability (XMD14-99 + AZD7762; first compound 0.8 µM): 0.466
- relative viability (XMD14-99 + AZD7762; first compound 2.53 µM): 0.444
- relative viability (XMD14-99 + AZD7762; first compound 8 µM): 0.46
- relative viability (XMD14-99 + Pemetrexed; first compound 0.08 µM): 0.605
- relative viability (XMD14-99 + Pemetrexed; first compound 0.8 µM): 0.564
- relative viability (XMD14-99 + Pemetrexed; first compound 2.53 µM): 0.585
- relative viability (XMD14-99 + Pemetrexed; first compound 8 µM): 0.477
- relative viability (AZD1208 + Phenformin; first compound 0.08 µM): 0.328
- relative viability (AZD1208 + Phenformin; first compound 0.253 µM): 0.387
- relative viability (AZD1208 + Phenformin; first compound 0.8 µM): 0.299
- relative viability (AZD1208 + Phenformin; first compound 2.53 µM): 0.315
- relative viability (AZD1208 + Phenformin; first compound 8 µM): 0.249

Cell Line: NCI-H1666
- relative viability (XMD14-99 + Tozasertib; first compound 0.08 µM): 0.61
- relative viability (XMD14-99 + Tozasertib; first compound 0.8 µM): 0.582
- relative viability (XMD14-99 + Tozasertib; first compound 2.53 µM): 0.498
- relative viability (XMD14-99 + Tozasertib; first compound 8 µM): 0.537
- relative viability (XMD14-99 + AZD7762; first compound 0.08 µM): 0.858
- relative viability (XMD14-99 + AZD7762; first compound 0.8 µM): 0.801
- relative viability (XMD14-99 + AZD7762; first compound 2.53 µM): 0.731
- relative viability (XMD14-99 + AZD7762; first compound 8 µM): 0.736
- relative viability (XMD14-99 + Pemetrexed; first compound 0.08 µM): 0.853
- relative viability (XMD14-99 + Pemetrexed; first compound 0.8 µM): 0.857
- relative viability (XMD14-99 + Pemetrexed; first compound 2.53 µM): 0.781
- relative viability (XMD14-99 + Pemetrexed; first compound 8 µM): 0.764
- relative viability (AZD1208 + Phenformin; first compound 0.08 µM): 0.499
- relative viability (AZD1208 + Phenformin; first compound 0.253 µM): 0.583
- relative viability (AZD1208 + Phenformin; first compound 0.8 µM): 0.54
- relative viability (AZD1208 + Phenformin; first compound 2.53 µM): 0.601
- relative viability (AZD1208 + Phenformin; first compound 8 µM): 0.559

Cell Line: NCI-H1734
- relative viability (XMD14-99 + Tozasertib; first compound 0.08 µM): 0.288
- relative viability (XMD14-99 + Tozasertib; first compound 0.8 µM): 0.244
- relative viability (XMD14-99 + Tozasertib; first compound 2.53 µM): 0.248
- relative viability (XMD14-99 + Tozasertib; first compound 8 µM): 0.227
- relative viability (XMD14-99 + AZD7762; first compound 0.08 µM): 0.487
- relative viability (XMD14-99 + AZD7762; first compound 0.8 µM): 0.513
- relative viability (XMD14-99 + AZD7762; first compound 2.53 µM): 0.459
- relative viability (XMD14-99 + AZD7762; first compound 8 µM): 0.51
- relative viability (XMD14-99 + Pemetrexed; first compound 0.08 µM): 0.42
- relative viability (XMD14-99 + Pemetrexed; first compound 0.8 µM): 0.409
- relative viability (XMD14-99 + Pemetrexed; first compound 2.53 µM): 0.406
- relative viability (XMD14-99 + Pemetrexed; first compound 8 µM): 0.4
- relative viability (AZD1208 + Phenformin; first compound 0.08 µM): 0.392
- relative viability (AZD1208 + Phenformin; first compound 0.253 µM): 0.426
- relative viability (AZD1208 + Phenformin; first compound 0.8 µM): 0.336
- relative viability (AZD1208 + Phenformin; first compound 2.53 µM): 0.293
- relative viability (AZD1208 + Phenformin; first compound 8 µM): 0.264

Cell Line: NCI-H1755
- relative viability (XMD14-99 + Tozasertib; first compound 0.08 µM): 0.519
- relative viability (XMD14-99 + Tozasertib; first compound 0.8 µM): 0.531
- relative viability (XMD14-99 + Tozasertib; first compound 2.53 µM): 0.478
- relative viability (XMD14-99 + Tozasertib; first compound 8 µM): 0.512
- relative viability (XMD14-99 + AZD7762; first compound 0.08 µM): 0.44
- relative viability (XMD14-99 + AZD7762; first compound 0.8 µM): 0.366
- relative viability (XMD14-99 + AZD7762; first compound 2.53 µM): 0.467
- relative viability (XMD14-99 + AZD7762; first compound 8 µM): 0.357
- relative viability (XMD14-99 + Pemetrexed; first compound 0.08 µM): 0.419
- relative viability (XMD14-99 + Pemetrexed; first compound 0.8 µM): 0.378
- relative viability (XMD14-99 + Pemetrexed; first compound 2.53 µM): 0.37
- relative viability (XMD14-99 + Pemetrexed; first compound 8 µM): 0.391
- relative viability (AZD1208 + Phenformin; first compound 0.08 µM): 0.586
- relative viability (AZD1208 + Phenformin; first compound 0.253 µM): 0.616
- relative viability (AZD1208 + Phenformin; first compound 0.8 µM): 0.623
- relative viability (AZD1208 + Phenformin; first compound 2.53 µM): 0.593
- relative viability (AZD1208 + Phenformin; first compound 8 µM): 0.502
